The subject of this test is P. aeruginosa C1. The experiment in a line: P. aeruginosa lung infection mouse model. The test is classed as in vivo, C57BL/6 mice. Particulars: for median lung bacteria load: 2 times per day for 3 days, n = 8, vehicle 2.51 × 10^7 CFU/g; for inhibition of lung colonization: vs vehicle.

Consider colistin sulfate, for which, for the setting “2 mg/kg i.v.”, the “median lung bacteria load” value is reported as 1.72 × 10^7 CFU/g and the “inhibition of lung colonization” value is listed as 31%. In addition, for the setting “4 mg/kg i.v.”, the “median lung bacteria load” value is 0.86 × 10^7 CFU/g and the “inhibition of lung colonization” value was 65%.

These data come from publication PMC6936460 (Proceedings of the National Academy of Sciences of the …, 2019).
